Assay results: the NIST ThermoML archive (doi:10.1021/acs.jced.8b00554)

Assay: xn = mol fraction of the nth substance listed
Settings: Liquid, Vibrating tube method

CCCCCCCCC [nonane] + CCCO
Settings | mass density [kg/m3]
333.15 K, 6020 kPa, x2 = 0.1231 | 692.22
333.15 K, 6020 kPa, x2 = 0.3229 | 700.03
333.15 K, 7000 kPa, x2 = 0.2315 | 697.33
333.15 K, 7010 kPa, x2 = 0.1231 | 693.22
333.15 K, 7010 kPa, x2 = 0.3229 | 701.03
333.15 K, 7010 kPa, x2 = 0.4272 | 706.53
333.15 K, 7010 kPa, x2 = 0.7021 | 728.53
333.15 K, 7010 kPa, x2 = 0.8941 | 754.12
333.15 K, 8000 kPa, x2 = 0.3229 | 702.03
333.15 K, 8010 kPa, x2 = 0.1231 | 694.22
333.15 K, 8010 kPa, x2 = 0.7021 | 729.53
333.15 K, 8010 kPa, x2 = 0.8941 | 755.09
333.15 K, 8020 kPa, x2 = 0.2315 | 698.33
333.15 K, 8020 kPa, x2 = 0.4272 | 707.53
333.15 K, 9010 kPa, x2 = 0.2315 | 699.32
333.15 K, 9010 kPa, x2 = 0.3229 | 703.05
333.15 K, 9010 kPa, x2 = 0.4272 | 708.53
333.15 K, 9010 kPa, x2 = 0.7021 | 730.52
333.15 K, 9010 kPa, x2 = 0.8941 | 756.05
333.15 K, 9020 kPa, x2 = 0.1231 | 695.19
333.15 K, 10010 kPa, x2 = 0.1231 | 696.17
333.15 K, 10010 kPa, x2 = 0.2315 | 700.3
333.15 K, 10010 kPa, x2 = 0.3229 | 704.04
333.15 K, 10010 kPa, x2 = 0.4272 | 709.54
333.15 K, 10020 kPa, x2 = 0.7021 | 731.49
333.15 K, 10020 kPa, x2 = 0.8941 | 757
333.15 K, 11010 kPa, x2 = 0.1231 | 697.14
333.15 K, 11010 kPa, x2 = 0.2315 | 701.27
333.15 K, 11010 kPa, x2 = 0.3229 | 705.01
333.15 K, 11010 kPa, x2 = 0.4272 | 710.52
333.15 K, 11010 kPa, x2 = 0.7021 | 732.46
333.15 K, 11010 kPa, x2 = 0.8941 | 757.95
333.15 K, 12000 kPa, x2 = 0.1231 | 698.08
333.15 K, 12000 kPa, x2 = 0.2315 | 702.25
333.15 K, 12000 kPa, x2 = 0.3229 | 705.98
333.15 K, 12010 kPa, x2 = 0.4272 | 711.48
333.15 K, 12010 kPa, x2 = 0.8941 | 758.88
333.15 K, 12020 kPa, x2 = 0.7021 | 733.42
333.15 K, 13000 kPa, x2 = 0.3229 | 706.94
333.15 K, 13000 kPa, x2 = 0.8941 | 759.79
333.15 K, 13010 kPa, x2 = 0.1231 | 699.03
333.15 K, 13010 kPa, x2 = 0.4272 | 712.44
333.15 K, 13010 kPa, x2 = 0.7021 | 734.37
333.15 K, 13020 kPa, x2 = 0.2315 | 703.18
333.15 K, 14000 kPa, x2 = 0.3229 | 707.87
333.15 K, 14010 kPa, x2 = 0.1231 | 699.96
333.15 K, 14010 kPa, x2 = 0.2315 | 704.11
333.15 K, 14010 kPa, x2 = 0.4272 | 713.39
333.15 K, 14010 kPa, x2 = 0.7021 | 735.32
333.15 K, 14010 kPa, x2 = 0.8941 | 760.71
333.15 K, 15000 kPa, x2 = 0.2315 | 705.02
333.15 K, 15010 kPa, x2 = 0.1231 | 700.86
333.15 K, 15010 kPa, x2 = 0.3229 | 708.79
333.15 K, 15010 kPa, x2 = 0.4272 | 714.3
333.15 K, 15010 kPa, x2 = 0.7021 | 736.23
333.15 K, 15010 kPa, x2 = 0.8941 | 761.6
333.15 K, 16000 kPa, x2 = 0.4272 | 715.23
333.15 K, 16000 kPa, x2 = 0.8941 | 762.49
333.15 K, 16010 kPa, x2 = 0.1231 | 701.75
333.15 K, 16010 kPa, x2 = 0.2315 | 705.94
333.15 K, 16010 kPa, x2 = 0.3229 | 709.71
333.15 K, 16020 kPa, x2 = 0.7021 | 737.15
333.15 K, 17000 kPa, x2 = 0.3229 | 710.61
333.15 K, 17010 kPa, x2 = 0.7021 | 738.03
333.15 K, 17010 kPa, x2 = 0.8941 | 763.38
333.15 K, 17020 kPa, x2 = 0.1231 | 702.63
333.15 K, 17020 kPa, x2 = 0.2315 | 706.85
333.15 K, 17020 kPa, x2 = 0.4272 | 716.11
333.15 K, 18000 kPa, x2 = 0.3229 | 711.48
333.15 K, 18000 kPa, x2 = 0.4272 | 717
333.15 K, 18000 kPa, x2 = 0.8941 | 764.23
333.15 K, 18010 kPa, x2 = 0.1231 | 703.52
333.15 K, 18010 kPa, x2 = 0.2315 | 707.71
333.15 K, 18010 kPa, x2 = 0.7021 | 738.91
333.15 K, 19000 kPa, x2 = 0.1231 | 704.35
333.15 K, 19000 kPa, x2 = 0.2315 | 708.54
333.15 K, 19000 kPa, x2 = 0.8941 | 765.08
333.15 K, 19010 kPa, x2 = 0.3229 | 712.34
333.15 K, 19010 kPa, x2 = 0.4272 | 717.85
333.15 K, 19010 kPa, x2 = 0.7021 | 739.77
333.15 K, 20000 kPa, x2 = 0.2315 | 709.37
333.15 K, 20000 kPa, x2 = 0.8941 | 765.89
333.15 K, 20010 kPa, x2 = 0.7021 | 740.63
333.15 K, 20020 kPa, x2 = 0.1231 | 705.18
333.15 K, 20020 kPa, x2 = 0.3229 | 713.17
333.15 K, 20020 kPa, x2 = 0.4272 | 718.7
343.15 K, 100 kPa, x2 = 0.1231 | 677.91
343.15 K, 100 kPa, x2 = 0.2315 | 680.7
343.15 K, 100 kPa, x2 = 0.3229 | 683.88
343.15 K, 100 kPa, x2 = 0.4272 | 688.89
343.15 K, 100 kPa, x2 = 0.7021 | 710.15
343.15 K, 100 kPa, x2 = 0.8941 | 735.96
343.15 K, 1000 kPa, x2 = 0.2315 | 681.31
